In patent publication US11167007B2, “FOXM1 modulators and uses thereof” (City of Hope, priority 2016, dated 2021):
Entries after “also recorded” stand apart in the source; their conditions may differ.

Experiments:
[1] = tested on: AR-FOXM1 co-localization; format: cell-based, murine; conditions: GT1-7 CARY cells, 24 hours, FIG. 4B
Protocol: Cells were fixed in 2% paraformaldehyde prior to incubating with primary antibody (FOXM1: mouse, AbCam) overnight at 4° C. Following washing, secondary antibody (Alexa 954 goat anti-mouse, Invitrogen) was applied for 45 minutes at 37° C. After washing, slides were mounted and analyzed using a confocal microscope (Zeiss). The coloc-2 Image J plug-in (Fiji) was used to quantify co-localization of AR and FOXM1 from three independent samples using both Li's Intensity Correlation Quotient (ICQ) and Manders split coefficients co-localization values. One-way analysis of variance was applied to determine statistical significant among groups, where p<0.05 was considered significant.

[2] = biological target: T1, AR (Homo sapiens, UniProt P10275); test: FRET-based AR conformation change reporter (CARY) in C2C12 muscle cells; format: cell-based, murine; parameters: Full length AR with cyan fluorescent protein (CFP) or yellow fluorescent protein (YFP) fused to either end (CARY); expressed in transfected cells; conditions: FRET or luciferase
T1 sequence (P10275 1-920): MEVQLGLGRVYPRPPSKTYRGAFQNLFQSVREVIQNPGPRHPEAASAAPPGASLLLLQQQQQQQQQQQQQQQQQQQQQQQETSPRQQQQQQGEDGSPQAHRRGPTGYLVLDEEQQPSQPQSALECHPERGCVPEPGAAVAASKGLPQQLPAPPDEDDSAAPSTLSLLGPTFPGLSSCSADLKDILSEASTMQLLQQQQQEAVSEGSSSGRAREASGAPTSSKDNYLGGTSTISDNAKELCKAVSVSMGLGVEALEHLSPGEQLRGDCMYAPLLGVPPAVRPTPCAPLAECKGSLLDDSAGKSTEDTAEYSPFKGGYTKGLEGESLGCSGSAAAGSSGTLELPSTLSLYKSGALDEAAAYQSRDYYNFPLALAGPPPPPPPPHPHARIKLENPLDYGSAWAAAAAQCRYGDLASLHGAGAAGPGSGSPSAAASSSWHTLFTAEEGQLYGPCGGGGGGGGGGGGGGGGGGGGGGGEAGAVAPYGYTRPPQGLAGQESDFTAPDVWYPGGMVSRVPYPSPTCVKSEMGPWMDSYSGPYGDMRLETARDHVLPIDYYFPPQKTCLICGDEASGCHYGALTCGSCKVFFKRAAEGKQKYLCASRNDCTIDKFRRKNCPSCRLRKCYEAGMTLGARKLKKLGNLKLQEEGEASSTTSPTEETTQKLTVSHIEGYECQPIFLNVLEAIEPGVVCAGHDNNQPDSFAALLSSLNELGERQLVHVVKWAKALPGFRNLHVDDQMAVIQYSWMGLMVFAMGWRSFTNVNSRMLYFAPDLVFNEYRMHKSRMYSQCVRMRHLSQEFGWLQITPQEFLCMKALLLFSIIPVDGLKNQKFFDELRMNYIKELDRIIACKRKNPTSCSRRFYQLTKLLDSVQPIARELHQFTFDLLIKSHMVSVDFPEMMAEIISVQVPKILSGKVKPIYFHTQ
Protocol: Creation of stable C-AR-Y reporter cell lines. Cell lines listed above were either transfected with a plasmid or a virus containing the CFP-AR-YFP construct preceding an IRES and hygromycin resistance gene and clonal stable cell lines selected. Qualification criteria for the transfected cell lines were described by Jones et al, ACS Chem Biol, 3(7):412-8 (2008).
Screen for AR-modulators. Screening was performed essentially as described by Jones et al, ACS Chem Biol, 3(7):412-8 (2008). Briefly, C-AR-Y reporter GTI-7 were transferred to 96 well plates and treated with library compounds for 24 hours. […] The compounds to be tested were from the NCI/DTP Open Chemical Repository's Approved Oncology Drugs Set II, Diversity Set II and Mechanistic Set. […] After 24 hours, medium was aspirated and FRET was measured as previously described using a monochromator-based fluorescence plate reader (M1000, Tecan, Inc.). Jones et al, ACS Chem Biol, 3(7):412-8 (2008). […]
In order to identify potential cell-type selective AR modulators, the FRET-based assay of AR conformation change was utilized. […] This produces an accurate and quantifiable read-out of AR activity. […] Candidate hits were then further evaluated by dose response. […] In addition to FRET, AR transcriptional activity was also assessed in several cell lines by transfecting cells with a luciferase reporter driven by the human PSA promoter. […]

Structure (SMILES)	association (co-localization) between FOXM1 and AR [1]	AR inhibitor (antagonist) activity in words [2]
C=C(NC(=O)C(=C)NC(=O)c1csc(C2=N[C@@H]3c4csc(n4)[C@H]4NC(=O)c5csc(n5)[C@H]([C@](C)(O)[C@@H](C)O)NC(=O)[C@H]5CSC(=N5)/C(=C/C)NC(=O)[C@H]([C@@H](C)O)NC(=O)c5csc(n5)[C@]3(CC2)NC(=O)[C@H](C)NC(=O)C(=C)NC(=O)[C@H](C)NC(=O)[C@H]([C@@H](C)CC)N[C@@H]2C=Cc3c([C@H](C)O)cc(nc3[C@H]2O)C(=O)O[C@@H]4C)n1)C(N)=O [thiostrepton]	not significantly affected	–
C=C(NC(=O)C(=C)NC(=O)c1csc(C2=N[C@@H]3c4csc(n4)[C@H]4NC(=O)c5csc(n5)[C@H]([C@](C)(O)[C@@H](C)O)NC(=O)[C@H]5CSC(=N5)/C(=C/C)NC(=O)[C@H]([C@@H](C)O)NC(=O)c5csc(n5)[C@]3(CC2)NC(=O)[C@H](C)NC(=O)C(=C)NC(=O)C(=C)NC(=O)[C@H](C(C)C)N[C@@H]2C=Cc3c([C@H](C)O)cc(nc3[C@H]2O)C(=O)O[C@@H]4C)n1)C(N)=O [NSC285116, siomycin A]	–	little to no activity; also recorded: not C2C12 muscle cells
